Experimental data published in ChEMBL document CHEMBL1157941, “Sapinmusaponins F-J, bioactive tirucallane-type saponins from the galls of Sapindus mukorossi” (J Nat Prod, 2006).

Columns and labels:
Raji [1] = test: Inhibition of 12-O-tetradecanoylphorbol-13-acetate induced EBV-early antigen activation in human Raji cells assessed as EA activation at 500 molar ratio after 48 hrs relative to TPA; assay type: cell-based; design: scale not given: the % may be the effect or the level left; conditions: human gammaherpesvirus 4
[2] = Cytotoxicity against rabbit platelet assessed as LDH release; assay type: cell-based, Oryctolagus cuniculus; design: concentration or dose not given beside the values
Platelet [3] = test: Inhibition of […]-induced platelet aggregation in citreated rabbit platelet-rich plasma by turbidimetric method; assay type: functional; conditions: Oryctolagus cuniculus
Raji [4] = test: Inhibition of 12-O-tetradecanoylphorbol-13-acetate induced EBV-early antigen activation in human Raji cells assessed as EA activation at 10 molar ratio after 48 hrs relative to TPA; assay type: cell-based; design: scale not given: the % may be the effect or the level left; conditions: human gammaherpesvirus 4
Platelet [5] = test: Inhibition of thrombin-induced platelet aggregation in citreated rabbit platelet-rich plasma by turbidimetric method; assay type: functional; conditions: Oryctolagus cuniculus
Raji [6] = test: Inhibition of 12-O-tetradecanoylphorbol-13-acetate induced EBV-early antigen activation in human Raji cells assessed as EA activation at 1000 molar ratio after 48 hrs relative to TPA; assay type: cell-based; design: scale not given: the % may be the effect or the level left; conditions: human gammaherpesvirus 4
Raji [7] = test: Inhibition of 12-O-tetradecanoylphorbol-13-acetate induced EBV-early antigen activation in human Raji cells assessed as EA activation at 100 molar ratio after 48 hrs relative to TPA; assay type: cell-based; design: scale not given: the % may be the effect or the level left; conditions: human gammaherpesvirus 4
[8] = Cytotoxicity against human Raji cells assessed as cell viability at 1000 molar ratio by trypan blue assay; assay type: cell-based; conditions: read-out: Activity
Platelet [9] = test: Inhibition of U46619-induced platelet aggregation in citreated rabbit platelet-rich plasma by turbidimetric method; assay type: functional; conditions: Oryctolagus cuniculus
Platelet [10] = test: Inhibition of arachidonic acid-induced platelet aggregation in citreated rabbit platelet-rich plasma by turbidimetric method; assay type: functional; conditions: Oryctolagus cuniculus

| IC50 (Platelet [3]) [µM] | IC50 (Platelet [5]) [µM] | IC50 (Platelet [9]) [µM] | IC50 (Platelet [10]) [µM] | Compound | Activity (Raji [1]) [%] | Activity [2] [%] | Activity (Raji [4]) [%] | Activity (Raji [6]) [%] | Activity (Raji [7]) [%] | viability at 1000 molar ratio [8] [%] |
| --- | --- | --- | --- | --- | --- | --- | --- | --- | --- | --- |
| 13.5 | 8.9 | 5.4 | 12.5 | CO[C@@H]1O[C@H](C=C(C)C)C[C@H]1[C@@H]1CC[C@]2(C)C3=CC[C@H]4C(C)(C)[C@@H](O[C@@H]5O[C@H](CO[C@@H]6O[C@@H](C)[C@H](O)[C@@H](O)[C@H]6O)[C@@H](O)[C@H](O)[C@H]5O)CC[C@]4(C)[C@H]3CC[C@@]12C [SAPINMUSAPONIN G] | 53.9 | < 10 | 100 | 9.7 | 83.7 | 60 |
| > 100 | > 100 | > 100 | > 100 | COC(C)(C)/C=C/C(O)[C@@](C)(O)[C@H]1CC[C@]2(C)[C@@H]1CC[C@@H]1[C@@]3(C)CC[C@H](O[C@@H]4O[C@H](CO)[C@@H](O)[C@H](O)[C@H]4O[C@@H]4O[C@@H](C)[C@H](O)[C@@H](O)[C@H]4O)C(C)(C)[C@@H]3C[C@H](O)[C@]12C (some centres undefined) [SAPINMUSAPONIN D] | – | 62.3 | – | – | – | – |
| > 100 | > 100 | > 100 | > 100 | C[C@@H]1O[C@@H](O[C@H]2[C@H](O[C@H]3CC[C@]4(C)[C@H]5CC[C@@H]6[C@@H]([C@](C)(O)C(O)/C=C/C(C)(C)O)CC[C@@]6(C)[C@]5(C)[C@@H](O)C[C@H]4C3(C)C)O[C@H](CO)[C@@H](O)[C@@H]2O)[C@H](O)[C@H](O)[C@H]1O (some centres undefined) [SAPINMUSAPONIN C] | – | 62.3 | – | – | – | – |
| 4.6 | > 100 | 16.3 | 71.5 | CO[C@@H]1O[C@H](C=C(C)C)C[C@H]1[C@@H]1CC[C@]2(C)C3=CC[C@H]4C(C)(C)[C@@H](O[C@@H]5O[C@H](CO)[C@@H](O)[C@H](O)[C@H]5O[C@@H]5O[C@@H](C)[C@H](O)[C@@H](O)[C@H]5O)CC[C@]4(C)[C@H]3CC[C@@]12C [SAPINMUSAPONIN H] | 54.4 | < 10 | 100 | 11 | 83.7 | 60 |
| 11.8 | 41.4 | – | 2.3 | CO[C@H]1O[C@H](C=C(C)C)C[C@H]1[C@@H]1CC[C@]2(C)C3=CC[C@H]4C(C)(C)[C@@H](O[C@@H]5O[C@H](CO[C@@H]6O[C@@H](C)[C@H](O)[C@@H](O)[C@H]6O)[C@@H](O)[C@H](O)[C@H]5O[C@@H]5O[C@@H](C)[C@H](O)[C@@H](O)[C@H]5O)CC[C@]4(C)[C@H]3CC[C@@]12C [SAPINMUSAPONIN I] | 60.5 | < 10 | 100 | 14.3 | 82.6 | 60 |
| 7.7 | 8.4 | 3.4 | 6.7 | CO[C@H]1O[C@H](C=C(C)C)C[C@H]1[C@@H]1CC[C@]2(C)C3=CC[C@H]4C(C)(C)[C@@H](O[C@@H]5O[C@H](CO[C@@H]6O[C@@H](C)[C@H](O)[C@@H](O)[C@H]6O)[C@@H](O)[C@H](O)[C@H]5O)CC[C@]4(C)[C@H]3CC[C@@]12C [SAPINMUSAPONIN F] | 53.6 | < 10 | 100 | 9.1 | 82.6 | 60 |
| > 100 | > 100 | > 100 | > 100 | CC(C)=CC(O)C(O)[C@@](C)(O)[C@H]1CC[C@]2(C)[C@@H]1CC[C@@H]1[C@@]3(C)CC[C@H](O[C@@H]4O[C@H](CO)[C@@H](O)[C@H](O)[C@H]4O[C@@H]4O[C@@H](C)[C@H](O)[C@@H](O)[C@H]4O)C(C)(C)[C@@H]3C[C@H](O)[C@]12C (some centres undefined) [SAPINMUSAPONIN B] | – | 62.3 | – | – | – | – |
| > 100 | > 100 | > 100 | > 100 | CC(C)=CCC(O)[C@@](C)(O)[C@H]1CC[C@]2(C)[C@@H]1CC[C@@H]1[C@@]3(C)CC[C@H](O[C@@H]4O[C@H](CO)[C@@H](O)[C@H](O)[C@H]4O[C@@H]4O[C@@H](C)[C@H](O)[C@@H](O)[C@H]4O)C(C)(C)[C@@H]3C[C@H](O)[C@]12C (some centres undefined) [SAPINMUSAPONIN A] | – | 62.3 | – | – | – | – |
